# Experimental data from patent US9193717B2, “Mineralocorticoid receptor antagonists” (Merck Sharp & Dohme Corp., priority 2011, dated 2015).
# Molecular target: T1, full-length human Mineralocorticoid Receptor (MR) (Homo sapiens, UniProt P08235)
# T1 construct: full-length human Mineralocorticoid Receptor (MR); host or cells: PathHunter CHO-K1 cells
# T1 sequence (P08235 1-984): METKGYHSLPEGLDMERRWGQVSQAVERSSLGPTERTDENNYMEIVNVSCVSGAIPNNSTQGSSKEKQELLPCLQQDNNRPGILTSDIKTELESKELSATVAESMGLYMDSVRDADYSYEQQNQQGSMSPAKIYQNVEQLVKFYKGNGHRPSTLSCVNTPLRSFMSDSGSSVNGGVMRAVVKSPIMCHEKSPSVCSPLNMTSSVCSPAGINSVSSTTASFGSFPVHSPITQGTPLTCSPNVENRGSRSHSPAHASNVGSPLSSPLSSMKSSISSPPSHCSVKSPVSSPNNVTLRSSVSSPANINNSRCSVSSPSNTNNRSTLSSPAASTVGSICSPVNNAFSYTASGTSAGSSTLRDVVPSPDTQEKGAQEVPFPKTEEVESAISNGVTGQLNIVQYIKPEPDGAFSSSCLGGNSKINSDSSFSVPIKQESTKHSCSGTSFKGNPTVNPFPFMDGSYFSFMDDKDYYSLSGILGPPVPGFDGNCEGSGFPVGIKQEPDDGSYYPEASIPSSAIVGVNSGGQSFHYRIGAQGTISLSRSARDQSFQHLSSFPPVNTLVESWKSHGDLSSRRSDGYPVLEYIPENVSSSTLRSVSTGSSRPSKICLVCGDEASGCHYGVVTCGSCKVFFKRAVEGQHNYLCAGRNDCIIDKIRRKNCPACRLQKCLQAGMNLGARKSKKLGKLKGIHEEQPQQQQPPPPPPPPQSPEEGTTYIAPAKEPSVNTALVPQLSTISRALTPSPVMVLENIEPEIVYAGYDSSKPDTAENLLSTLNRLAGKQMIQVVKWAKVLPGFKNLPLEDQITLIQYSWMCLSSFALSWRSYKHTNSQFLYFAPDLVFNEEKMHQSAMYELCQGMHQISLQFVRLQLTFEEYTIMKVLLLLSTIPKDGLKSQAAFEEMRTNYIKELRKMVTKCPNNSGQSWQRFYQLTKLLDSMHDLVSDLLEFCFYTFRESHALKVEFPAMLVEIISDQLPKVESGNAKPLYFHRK
# Assay: human MR NH Pro assay (PathHunter Protein:Protein interaction assay, MR antagonism)
# Format: cell-based
# Settings: PathHunter CHO-K1 cells that overexpress human MR; aldosterone (0.3 nM), 6 hours at 37° C.; antagonist mode; read-out: IC50 rating
# Procedure: The activity of the compounds of the present invention regarding mineralocorticoid receptor antagonism was evaluated using the following assay.
# Assessment of Mr Potency in HMR NH Pro Assay
# The human MR NH Pro assay is a commercially available PathHunter™ Protein:Protein interaction assay (DiscoveRx; http://www.discoverx.com/nhrs/prod-nhrs.php) that measures the ability of compounds to antagonize full-length human Mineralocorticoid Receptor (MR) binding to a coactivator peptide. PathHunter™ CHO—K1 cells that overexpress human MR (Cat #93-0456C2, Lot No: 09B0913) were cultured in growth media (F12K w/Glutamine and phenol red (Gibco 11765-047) supplemented with 10% HI FBS (Gibco 16000); 0.25 mg/ml Hygromycin in PBS (Invitrogen 10687-010, 50 mg/ml); 100 I.U./mL and 100 μg/mL Pen/Strep (Gibco 15140-122); 0.6 mg/mL Geneticin).
# Compounds were assessed for MR antagonist activity by incubating the cells with a titrating dose of compound in F12K w/Glutamine and phenol red culture media (Invitrogen 11765-047) supplemented with 1% Charcoal/Dextran Treated FBS (Hyclone #SH30068.01) and aldosterone (0.3 nM) for 6 hours at 37° C. […] Growth Media: • F12K w/Glutamine and phenol red (Gibco 11765-047) • 10% HI FBS (Gibco 16000) • 0.25 mg/ml Hygromycin in PBS (Invitrogen 10687-010, 50 mg/ml) • 100 I.U./mL and 100 μg/mL Pen/Strep (Gibco 15140-122) • 0.6 mg/mL Geneticin (Gibco 10131, 50 mg/ml) • 2. Assay Media: • F12K w/Glutamine and phenol red (Invitrogen 11765-047) • 1% Charcoal/Dextran Treated FBS (Hyclone #SH30068.01) • 3. 3× PathHunter Detection Reagents (Cat#93-0001) (need ˜6 ml/plate). […] Control Agonist:Aldosterone:Sigma cat# A9477 • Prepare stock solution-10 μM in DMSO kept at −20° C. • for assay, dilute in assay media to 1.8 or 6 nM (6× of final concentration=about 0.3 nM to about 1.0 nM) • 5. Cell line: PathHunter CHO—K1 MR cells Cat #93-0456C2, Lot No: 09B0913, from operation liquid nitrogen stock. • 6. Control Antagonist:Spironolactone:Sigma #S-3378 and Eplerenone Sigma #107724-20-9 (10 mM stock concentration also prepared in DMSO and stored at −20° C.). • Methods: • Assay Set up and Calculations: • 1. Cells were grown in F12+FBS+Hygromycin+pen/strep+Genetin • 2. Cells were collected with 0.05% trypsin and the cell suspension was spun and resuspended in a volume of F12+1.5% CD-FBS and counted. • 3. The cells were resuspended to 4×10^5 cells/mL. • 4. Cells were (25 μL/well) added to the wells of a 384 well plate. • 5. The plate was then incubated at 37° C. over night in a humidified incubator with 5% CO2. • 6. Test compounds were titrated starting at 4.4 mM, 10-point titration in 1:3 dilution. • 7. Aldosterone was diluted in assay media to 1.8 nM or 6 nM from 10 μM stock (final concentration to be about 0.3 nM to about 1.0 nM). • Protocol for 384 Well Plate Format: 6 Hr Treatment: • 1. Plated 10K exponentially growing cells/well (25 μL) resuspended in assay media to each well using the Multidrop (Thermo Electron) (use white wall, clear bottom assay plates (Costar #3570) and incubate overnight at 37° C., 5% CO2. • 2. 0.25 μL 120× test compound (final DMSO concentration should be <1%) was added to each well n=2, 10 point titrations starting at 36.7 μM final concentration. • 3. 5 μL 6× agonist (final aldosterone concentration should be about 0.3 nM to about 1.0 nM) was added to all wells using the PlateMate Plus.
# (ThermoFisher) (except those wells in columns 23 and 24) • 4. 5 μL of assay media was added to all wells in column 23 and 24. • 5. Plates were incubated 6 hrs at 37° C., 5% CO2. • 6. 15 μL 3× DiscoveRx detection reagent was added to each well. • 7. Plates were incubated for 1 hour at room temperature (plates stored in the dark). • 8. Plates were read on Envision (PerkinElmer) luminesence plate reader and analyzed using ADA.
row,IC50 [nM],SMILES
1,100 to 500,"C[C@H](c1ccc(F)cc1)N1C(=O)O[C@](Cc2ccccc2)(c2nc3cc(OC(F)(F)F)ccc3[nH]2)C1=O [Compound 4, (5R)-5-Benzyl-3-[(1R)-1-(4-fluorophenyl)ethyl]-5-[5-(trifluoromethoxy)-1H-benzimidazol-2-yl]-1,3-oxazolidine-2,4-dione]"
2,< 100,"C[C@H](c1ccc(F)cc1)N1C(=O)O[C@](Cc2ccccc2)(c2nc3cc(N4CCOCC4)ccc3[nH]2)C1=O [Compound 9, (5R)-5-Benzyl-3-[(1R)-1-(4-fluorophenyl)ethyl]-5-(5-morpholin-4-yl-1H-benzimidazol-2-yl)-1,3-oxazolidine-2,4-dione]"
3,500 to 2000,"C[C@H](c1ccc(F)cc1)N1C(=O)O[C@](Cc2ccccc2)(c2nc3c(-c4cnoc4)cccc3[nH]2)C1=O [Compound 30, (5R)-5-Benzyl-3-[(1R)-1-(4-fluorophenyl)ethyl]-5-(4-isoxazol-4-yl-1H-benzimidazol-2-yl)-1,3-oxazolidine-2,4-dione]"
4,100 to 500,"C[C@H](c1ccc(F)cc1)N1C(=O)O[C@](Cc2ccccc2)(c2nc3cc(-c4cc[nH]n4)ccc3[nH]2)C1=O [Compound 27, (5R)-5-Benzyl-3-[(1R)-1-(4-fluorophenyl)ethyl]-5-[5-(1H-pyrazol-5-yl)-1H-benzimidazol-2-yl]-1,3-oxazolidine-2,4-dione]"
5,< 100,"C[C@H](c1ccc(F)cc1)N1C(=O)O[C@](Cc2ccccc2)(c2nc3cc(-c4cn[nH]c4)ccc3[nH]2)C1=O [Compound 26, (5R)-5-Benzyl-3-[(1R)-1-(4-fluorophenyl)ethyl]-5-[5-(1H-pyrazol-4-yl)-1H-benzimidazol-2-yl]-1,3-oxazolidine-2,4-dione]"
6,100 to 500,"C[C@H](C1CCCCC1)N1C(=O)O[C@](Cc2ccc(F)cc2)(c2nc3ccc(C#N)cc3[nH]2)C1=O [Compound 18, 2-{3-[(1R)-1-Cyclohexylethyl]-5-(4-fluorobenzyl)-2,4-dioxo-1,3-oxazolidin-5-yl}-1H-benzimidazole-5-carbonitrile]"
7,100 to 500,"C[C@H](c1ccc(F)cc1)N1C(=O)O[C@](Cc2ccccc2)(c2nc3c(-c4cnn(C)c4)cccc3[nH]2)C1=O [Compound 31, (5R)-5-Benzyl-3-[(1R)-1-(4-fluorophenyl)ethyl]-5-[4-(1-methyl-1H-pyrazol-4-yl)-1H-benzimidazol-2-yl]-1,3-oxazolidine-2,4-dione]"
8,< 100,"Cc1noc(C)c1-c1ccc2[nH]c([C@@]3(Cc4ccccc4)OC(=O)N([C@H](C)c4ccc(F)cc4)C3=O)nc2c1 [Compound 23, (5R)-5-Benzyl-5-[5-(3,5-dimethylisoxazol-4-yl)-1H-benzimidazol-2-yl]-3-[(1R)-1-(4-fluorophenyl)ethyl]-1,3-oxazolidine-2,4-dione]"
9,100 to 500,"COC(=O)c1ccc2nc([C@@]3(Cc4ccccc4)OC(=O)N([C@H](C)c4ccc(F)cc4)C3=O)[nH]c2c1 [Compound 5, Methyl 2-{(5R)-5-benzyl-3-[(1R)-1-(4-fluorophenyl)ethyl]-2,4-dioxo-1,3-oxazolidin-5-yl}-1H-benzimidazole-5-carboxylate]"
10,100 to 500,"CCS(=O)(=O)Nc1ccc2nc([C@@]3(Cc4ccccc4)OC(=O)N([C@H](C)c4ccc(F)cc4)C3=O)[nH]c2c1 [Compound 16, N-(2-{(5R)-5-Benzyl-3-[(1R)-1-(4-fluorophenyl)ethyl]-2,4-dioxo-1,3-oxazolidin-5-yl}-1H-benzimidazol-6-yl)ethanesulfonamide]"
11,< 100,"C[C@H](c1ccc(F)cc1)N1C(=O)O[C@](Cc2ccccc2)(c2nc3cc(-c4cncnc4)ccc3[nH]2)C1=O [Compound 22, (5R)-5-Benzyl-3-[(1R)-1-(4-fluorophenyl)ethyl]-5-(5-pyrimidin-5-yl-1H-benzimidazol-2-yl)-1,3-oxazolidine-2,4-dione]"
12,100 to 500,"C[C@H](c1ccc(F)cc1)N1C(=O)O[C@](Cc2ccccc2)(c2nc3cc(F)c(F)cc3n2C)C1=O [Compound 37, (5R)-5-Benzyl-5-(5,6-difluoro-1-methyl-1H-benzimidazol-2-yl)-3-[(1R)-1-(4-fluorophenyl)ethyl]-1,3-oxazolidine-2,4-dione]"
13,100 to 500,"C[C@H](c1ccc(F)cc1)N1C(=O)O[C@](Cc2ccccc2)(c2nc3c(-c4ccncc4)cccc3[nH]2)C1=O [Compound 34, (5R)-5-Benzyl-3-[(1R)-1-(4-fluorophenyl)ethyl]-5-(4-pyridin-4-yl-1H-benzimidazol-2-yl)-1,3-oxazolidine-2,4-dione]"
14,100 to 500,"C[C@H](c1ccc(F)cc1)N1C(=O)O[C@](Cc2ccccc2)(c2nc3ccc(CN4CCOCC4)cc3[nH]2)C1=O [Compound 10, (5R)-5-Benzyl-3-[(1R)-1-(4-fluorophenyl)ethyl]-5-[5-(morpholinylmethyl)-1H-benzimidazol-2-yl]-1,3-oxazolidine-2,4-dione]"
15,100 to 500,"C[C@H](c1ccc(F)cc1)N1C(=O)O[C@](Cc2ccccc2)(c2nc3cc(Cl)ccc3[nH]2)C1=O [Compound 1, (5R)-5-Benzyl-5-(5-chloro-1H-benzimidazol-2-yl)-3-[(1R)-1-(4-fluorophenyl)ethyl]-1,3-oxazolidine-2,4-dione]"

# Same assay, conditions: Table 3; PathHunter CHO-K1 cells that overexpress human MR; aldosterone (0.3 nM), 6 hours at 37° C.; antagonist mode; read-out: IC50
row,IC50 [nM],SMILES
1,500 to 2000,"CCCCCC[C@@H](C)N1C(=O)O[C@](Cc2ccccc2)(c2nc3cc(NS(C)(=O)=O)ccc3[nH]2)C1=O [Example 42, N-(2-((R)-5-benzyl-3-((R)-octan-2-yl)-2,4-dioxooxazolidin-5-yl)-1H-benzo[d]imidazol-5-yl)methanesulfonamide]"
